Assays:
[1] = refractive index (Na D-line) (dimensionless); mn = molality of the nth substance listed, in mol/kg; conditions: 298.15 K, 101 kPa, Liquid, Standard Abbe refractometry
[2] = mn = molality of the nth substance listed, in mol/kg; conditions: 101 kPa, Liquid, Vibrating tube method

O=C[C@H](O)[C@@H](O)[C@H](O)[C@H](O)CO [D-glucose] + O
[1]
Conditions | refractive index
m1 = 0.05 | 1.3331
m1 = 0.1 | 1.3343
m1 = 0.2 | 1.3368
m1 = 0.3 | 1.3392
m1 = 0.5 | 1.3443
m1 = 0.8 | 1.351

mass density [kg/m3], [2]
Conditions | m1 = 0.05 | m1 = 0.1 | m1 = 0.2 | m1 = 0.3 | m1 = 0.5 | m1 = 0.8
288.15 K | 1002.58 | 1006 | 1012.64 | 1019.21 | 1031.87 | 1050.04
293.15 K | 1001.65 | 1005.04 | 1011.63 | 1018.15 | 1030.73 | 1048.76
298.15 K | 1000.46 | 1003.84 | 1010.38 | 1016.85 | 1029.34 | 1047.27
303.15 K | 999.043 | 1002.39 | – | 1015.33 | 1027.75 | 1045.58
308.15 K | – | 1000.75 | – | 1013.63 | 1025.96 | 1043.7

OC[C@H]1O[C@@](CO)(O[C@H]2O[C@H](CO)[C@@H](O)[C@H](O)[C@H]2O)[C@@H](O)[C@@H]1O [D-sucrose] + O
[1]
Conditions | refractive index
m1 = 0.05 | 1.3343
m1 = 0.1 | 1.3368
m1 = 0.2 | 1.3415
m1 = 0.3 | 1.3458
m1 = 0.5 | 1.3542
m1 = 0.8 | 1.3656

mass density [kg/m3], [2]
Conditions | m1 = 0.05 | m1 = 0.1 | m1 = 0.2 | m1 = 0.3 | m1 = 0.5 | m1 = 0.8
288.15 K | 1005.67 | 1012.18 | 1024.44 | 1036.52 | 1059.36 | 1089.54
293.15 K | 1004.73 | 1011.2 | 1023.38 | 1035.39 | 1058.1 | 1088.1
298.15 K | 1003.53 | 1009.97 | 1022.08 | 1034.03 | 1056.62 | 1086.46
303.15 K | 1002.11 | 1008.5 | 1020.57 | 1032.45 | 1054.93 | 1084.64
308.15 K | 1000.46 | 1006.83 | 1018.84 | 1030.68 | 1053.07 | 1082.65

CC(=O)NCCCCCCNC(C)=O [N,N'-diacetyl-1,6-hexanediamine] + O
[1]
Conditions | refractive index
m1 = 0.0999 | 1.335
m1 = 0.1498 | 1.3365
m1 = 0.1998 | 1.338
m1 = 0.25 | 1.3396
m1 = 0.3001 | 1.3409
m1 = 0.3503 | 1.342
m1 = 0.3984 | 1.3433

mass density [kg/m3], [2]
Conditions | m1 = 0.0999 | m1 = 0.1498 | m1 = 0.1998 | m1 = 0.25 | m1 = 0.3001 | m1 = 0.3503 | m1 = 0.3984
288.15 K | 1000.16 | 1000.68 | 1001.23 | 1001.78 | 1002.34 | 1002.88 | 1003.42
293.15 K | 999.201 | 999.691 | 1000.2 | 1000.72 | 1001.25 | 1001.75 | 1002.26
298.15 K | 997.982 | 998.441 | 998.923 | 999.415 | 999.908 | 1000.38 | 1000.87
303.15 K | 996.53 | 996.965 | 997.419 | 997.884 | 998.347 | 998.795 | 999.248
308.15 K | 994.869 | 995.284 | 995.708 | 996.146 | 996.58 | 997.002 | 997.432

O [water] + CC(=O)NCCCCCCNC(C)=O
Conditions | refractive index
[1], m2 = 0 | 1.332

Reference: the NIST ThermoML archive (doi:10.1021/je200421s)
